For series [1], the system named is MV-4-11 (human, Acute Myeloid Leukemia cell line) cells. The experiment in a line: Cell growth inhibition assay, GI50 of MV-4-11. Type of series: cell-based. The settings on record: Homo sapiens, MV4-11, 72 h, MV-4-11 cells. The essentials:
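MV-4-11 AML cells (5×10^4/well, IMDM with 10% FBS) treated in duplicate with serially diluted compounds for 72 hours at 37 °C. Viability read as absorbance at 490 nm after CellTiter 96 Aqueous One (MTS) addition; GI50 calculated from the concentration-response.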

Series [2] deals with cDNA-expressed human hepatic CYP3A4 (Homo sapiens (Human), UniProt P08684). The series is described as follows: Measurement of CYP (IC50 of P450 CYP3A4), BFC substrate. Type of series: in vitro ADME. The following applies: 20 minutes. The protocol:
The compounds of the present invention had lower P450 CYP3A4 inhibitory activity (higher IC50). Lower CYP3A4 inhibitory activity means that the compounds of the present invention cause fewer side-effects from the pharmacological point of view.
This assay was performed in a 200 l volume in 96-well microtiter plates using cDNA-expressed human hepatic CYP3A4 (supersome, BD Gentest™ #456202). As a substrate for CYP3A4, 7-benzyloxy-4-trifluoromethyl-coumarin (BFC) was used. The compounds of Examples 1 to 5 and the substrate BFC were dissolved in 100% acetonitrile. The final volume of acetonitrile of the incubation mixture was less than 1% (volume/volume). A potassium phosphate buffer (pH 7.4, final concentration 0.1M), MgCl2 (final concentration 8.3 mM), EDTA (final concentration 1.67 mM), an inventive compound stock solution, CYP3A4 supersome, and NADPH (final concentration 0.25 mM) were added to each well. The reaction was initiated by adding the substrate (BFC, final concentration 30 µM) at 37. The incubation was performed for 20 minutes and then the reaction was terminated by the addition of 75 μl of acetonitrile: 0.5 M tris-base=4:1 (volume/volume).
Then, a fluorescent signal was measured using a fluorometer. A BFC metabolite, 7-hydroxy-4-trifluoromethyl-coumarin, was measured using an excitation wavelength of 409 nm and an emission wavelength of 530 nm.

Usually GI50 stands for the concentration giving 50% growth inhibition. High values mean lower sensitivity of the cells, low ones greater sensitivity of the cells. Usually IC50 stands for the midpoint of a concentration-inhibition curve. Read a high IC50 as lower potency.

Sequence of cDNA-expressed human hepatic CYP3A4 (P08684 whole entry): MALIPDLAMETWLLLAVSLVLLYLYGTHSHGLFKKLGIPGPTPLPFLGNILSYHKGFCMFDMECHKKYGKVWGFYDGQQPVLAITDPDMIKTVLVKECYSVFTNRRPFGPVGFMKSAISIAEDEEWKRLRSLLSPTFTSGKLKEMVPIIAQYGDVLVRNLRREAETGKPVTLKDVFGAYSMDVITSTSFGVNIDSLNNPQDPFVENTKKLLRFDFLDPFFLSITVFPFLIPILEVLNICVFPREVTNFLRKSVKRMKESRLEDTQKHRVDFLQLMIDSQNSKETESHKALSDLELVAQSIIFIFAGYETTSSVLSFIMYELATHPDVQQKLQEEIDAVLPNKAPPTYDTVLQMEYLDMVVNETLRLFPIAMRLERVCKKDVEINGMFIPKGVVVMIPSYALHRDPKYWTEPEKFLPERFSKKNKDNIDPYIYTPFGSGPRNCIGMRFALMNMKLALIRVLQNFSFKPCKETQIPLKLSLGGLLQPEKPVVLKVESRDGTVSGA

For `C=CCN1CC(=O)N2C(Cc3ccc(O)cc3)C(=O)N(Cc3cccc4c(C(=O)Nc5ccc(N6CCC(N7CCCC7)CC6)nc5)cn(C)c34)CC2N1C(=O)NCc1ccccc1` (centres unmarked) [Compound G-51], in series [1], growth was halved (GI50) at 1.3 nM. In series [2], this compound had an IC50 of 3970 nM.

In the case of `C=CCN1CC(=O)N2[C@@H](Cc3ccc(O)cc3)C(=O)N(Cc3cccc4c(-c5ccc(C(=O)Nc6ccc(N7CCN(C)CC7)cc6)cc5)cn(C)c34)C[C@@H]2N1C(=O)NCc1ccccc1` [Compound D-11], the GI50 in series [1] is 1.8 nM. For the same compound, the IC50 in series [2] came to 7040 nM.

Compound `C=CCN1CC(=O)N2[C@@H](Cc3ccc(O)cc3)C(=O)N(Cc3cccc4c(C(=O)Nc5ccc(N6CCC(N7CCC7)CC6)nc5)cn(C)c34)C[C@@H]2N1C(=O)NCc1ccccc1` [Compound G-54] showed a GI50 in series [1] of 1.4 nM. Further, in series [2], the IC50 was 3290 nM.

Take `C=CCN1CC(=O)N2[C@@H](Cc3ccc(O)cc3)C(=O)N(Cc3cccc4c(-c5ccc(NC(=O)N6CCN(S(C)(=O)=O)CC6)nc5)cn(C)c34)C[C@@H]2N1C(=O)NCc1ccccc1` [Compound D-97]: in series [1], the concentration for 50% growth inhibition (GI50) stood at 2.2 nM. The IC50 in series [2] was determined as 6400 nM.

`C=CCN1CC(=O)N2[C@@H](Cc3ccc(O)cc3)C(=O)N(Cc3cccc4c(-c5ccc(C(=O)Nc6ccc(N)cc6)cc5)cn(C)c34)C[C@@H]2N1C(=O)NCc1ccccc1` [Compound D-18] returned a GI50 in series [1] of 1.2 nM. Further, in series [2], the IC50 was found to be 2420 nM.

In series [1], `C=CCN1CC(=O)N2[C@@H](Cc3ccc(O)cc3)C(=O)N(Cc3cccc4c(C(=O)NCc5ccnc(N(C)C)c5)cn(C)c34)C[C@@H]2N1C(=O)NCc1ccccc1` [Compound F-48] yielded a GI50 of 10.7 nM. Also, the IC50 in series [2] was 2180 nM.

Regarding `C=CCN1CC(=O)N2[C@@H](Cc3ccc(O)cc3)C(=O)N(Cc3cccc4c(C(=O)N5CCN6CCN(CC(C)C)CC6C5)cn(C)c34)C[C@@H]2N1C(=O)NCc1ccccc1` (some centres unmarked) [Compound E-45], the concentration for 50% growth inhibition (GI50) in series [1] was found to be 1.8 nM. The same compound returned an IC50 in series [2] of 3980 nM.

For the compound `C=CCN1CC(=O)N2C(CN(Cc3cccc4c(C(=O)Nc5ccc(OC)nc5)cn(C)c34)C(=O)[C@@H]2Cc2ccc(O)cc2)N1C(=O)NCc1ccccc1` (some centres unmarked) [Compound G-5], the GI50 in series [1] came out at 8.8 nM. The compound also yielded an IC50 in series [2] of 2160 nM.

Consider `C=CCN1CC(=O)N2C(CN(Cc3cccc4c(-c5ccc(S(C)(=O)=O)cc5)cn(C)c34)C(=O)[C@@H]2Cc2ccc(O)cc2)N1C(=O)NCc1ccccc1` (some centres unmarked) [Compound H-3], for which the GI50 in series [1] was found to be 2.2 nM. The same compound returned an IC50 in series [2] of 10000 nM.

The compound `C=CCN1CC(=O)N2[C@@H](Cc3ccc(O)cc3)C(=O)N(Cc3cccc4c(C(=O)N(C)CCN5CCOCC5)cn(C)c34)C[C@@H]2N1C(=O)NCc1ccccc1` [Compound F-26] displayed a GI50 in series [1] of 19.8 nM. The compound further yielded an IC50 in series [2] of 2860 nM.

On to `C=CCN1CC(=O)N2[C@@H](Cc3ccc(O)cc3)C(=O)N(Cc3cccc4c(-c5ccc(NC(=O)NC6CCCC6)cc5)cn(C)c34)C[C@@H]2N1C(=O)NCc1ccccc1` [Compound D-79], for which, in series [1], it took 10.8 nM to inhibit growth by half (GI50). Moreover, in series [2], inhibition was half-maximal at 7800 nM (IC50).

For `C=CCN1CC(=O)N2[C@@H](Cc3ccc(O)cc3)C(=O)N(Cc3cccc4c(C(=O)Nc5ccc(OCCCN(C)C)nc5)cn(C)c34)C[C@@H]2N1C(=O)NCc1ccccc1` [Compound G-13], halving of growth in series [1] (GI50) required 9 nM. The same compound yielded an IC50 in series [2] of 13000 nM.

Turning to `C=CCN1CC(=O)N2[C@@H](Cc3ccc(O)cc3)C(=O)N(Cc3cccc4c(C(=O)Nc5ccc(N6CC7CCN(C)C7C6)nc5)cn(C)c34)C[C@@H]2N1C(=O)NCc1ccccc1` (some centres unmarked) [Compound G-64], the concentration for 50% growth inhibition (GI50) in series [1] was 1.3 nM. The compound further came in with an IC50 in series [2] of 7640 nM.

In turn, `C=CCN1CC(=O)N2[C@@H](Cc3ccc(O)cc3)C(=O)N(Cc3cccc4c(C(=O)N(C)CCO)cn(C)c34)C[C@@H]2N1C(=O)NCc1ccccc1` [Compound F-3] returned a GI50 in series [1] of 7.6 nM. For the same compound, the half-inhibitory concentration (IC50) in series [2] came to 2510 nM.

Compound `C=CCN1CC(=O)N2[C@@H](Cc3ccc(O)cc3)C(=O)N(Cc3cccc4c(C(=O)Nc5ccc(N6CCN(C7CCCC7)CC6)nc5)cn(C)c34)C[C@@H]2N1C(=O)NCc1ccccc1` [Compound G-50] displayed a GI50 in series [1] of 2.4 nM. For the same compound, inhibition in series [2] was half-maximal at 17200 nM (IC50).

With `C=CCN1CC(=O)N2[C@@H](Cc3ccc(O)cc3)C(=O)N(Cc3cccc4c(C(=O)Nc5ccc(OCCCN6CCCCC6)nc5)cn(C)c34)C[C@@H]2N1C(=O)NCc1ccccc1` [Compound G-31], in series [1], the GI50 came out at 2.7 nM. For the same compound, the IC50 in series [2] turned out to be 7670 nM.

As to `C=CCN1CC(=O)N2[C@@H](Cc3ccc(O)cc3)C(=O)N(Cc3cccc4c(-c5ccc(NC(=O)Nc6ncccn6)cc5)cn(C)c34)C[C@@H]2N1C(=O)NCc1ccccc1` [Compound D-82], the GI50 in series [1] came to 16.8 nM. The compound also registered an IC50 in series [2] of 8520 nM.

In the case of `C=CCN1CC(=O)N2[C@@H](Cc3ccc(O)cc3)C(=O)N(Cc3cccc4c(C(=O)N(CCO)CCNCCO)cn(C)c34)C[C@@H]2N1C(=O)NCc1ccccc1` [Compound F-20], the IC50 in series [2] was determined as 2890 nM.

In the case of `C=CCN1CC(=O)N2[C@@H](Cc3ccc(O)cc3)C(=O)N(Cc3cccc4c(C(=O)NN5CCCCC5)cn(C)c34)C[C@@H]2N1C(=O)NCc1ccccc1` [Compound F-57], the IC50 in series [2] was found to be 4780 nM.

In turn, `C=CCN1CC(=O)N2[C@@H](Cc3ccc(O)cc3)C(=O)N(Cc3cccc4c(C(=O)N5CCC(NC(=O)CCO)CC5)cn(C)c34)C[C@@H]2N1C(=O)NCc1ccccc1` [Compound E-57] came in with an IC50 in series [2] of 7650 nM.

As to `C=CCN1CC(=O)N2[C@@H](Cc3ccc(O)cc3)C(=O)N(Cc3cccc4c(C(=O)NCCCO)cn(C)c34)C[C@@H]2N1C(=O)NCc1ccccc1` [Compound F-4], in series [2], the IC50 worked out at 16200 nM.

In series [2], `C=CCN1CC(=O)N2[C@@H](Cc3ccc(O)cc3)C(=O)N(Cc3cccc4c(C(=O)N5CCCN(C)CC5)cn(C)c34)C[C@@H]2N1C(=O)NCc1ccccc1` [Compound E-42] returned an IC50 of 3630 nM.

Take `C=CCN1CC(=O)N2[C@@H](Cc3ccc(O)cc3)C(=O)N(Cc3cccc4c(C(=O)N5CCN6CCN(C(C)=O)CC6C5)cn(C)c34)C[C@@H]2N1C(=O)NCc1ccccc1` (some centres unmarked) [Compound E-44]: half-maximal inhibition in series [2] (IC50) was put at 15000 nM.

Consider `C=CCN1CC(=O)N2[C@@H](Cc3ccc(O)cc3)C(=O)N(Cc3cccc4c(-c5cccc(C(=O)Nc6ccccc6)c5)cn(C)c34)C[C@@H]2N1C(=O)NCc1ccccc1` [Compound D-14], for which, in series [2], the midpoint of inhibition, the IC50, lay at 2130 nM. This IC50 is about 7-fold lower than that of the compound before.

For the compound `C=CCN1CC(=O)N2[C@@H](Cc3ccc(O)cc3)C(=O)N(Cc3cccc4c(C(=O)N5CCC(N(C)C)CC5)cn(C)c34)C[C@@H]2N1C(=O)NCc1ccccc1` [Compound E-61], half-maximal inhibition in series [2] (IC50) required 2230 nM.

In series [2], `C=CCN1CC(=O)N2C(CN(Cc3cccc4c(C(=O)Nc5ccc(NCC(O)CO)nc5)cn(C)c34)C(=O)[C@@H]2Cc2ccc(O)cc2)N1C(=O)NCc1ccccc1` (some centres unmarked) [Compound G-21] yielded an IC50 of 2550 nM.

As to `C=CCN1CC(=O)N2[C@@H](Cc3ccc(O)cc3)C(=O)N(Cc3cccc4c(C(=O)N5CCN(CC6CCCC6)CC5)cn(C)c34)C[C@@H]2N1C(=O)NCc1ccccc1` [Compound E-21], the IC50 in series [2] was > 25000 nM.

Regarding `C=CCN1CC(=O)N2[C@@H](Cc3ccc(O)cc3)C(=O)N(Cc3cccc4c(C(=O)N(C)NC)cn(C)c34)C[C@@H]2N1C(=O)NCc1ccccc1` [Compound F-53], in series [2], the half-maximal inhibitory concentration (IC50) was 2330 nM.

Turning to `C=CCN1CC(=O)N2[C@@H](Cc3ccc(O)cc3)C(=O)N(Cc3cccc4c(C(=O)N5CCC(C(=O)N(C)CCN(C)C)CC5)cn(C)c34)C[C@@H]2N1C(=O)NCc1ccccc1` [Compound E-54], in series [2], it took 4970 nM to reach half-maximal inhibition (IC50).

Take `C=CCN1CC(=O)N2[C@@H](Cc3ccc(O)cc3)C(=O)N(Cc3cccc4c(C(=O)NN5CCN(c6ccccn6)CC5)cn(C)c34)C[C@@H]2N1C(=O)NCc1ccccc1` [Compound E-38]: the IC50 in series [2] is 2480 nM. Compared with the last compound, the IC50 is about 2-fold lower.
